The target of the assay is T1, ATF3 (Homo sapiens, UniProt P18847).
T1 construct: We focus on the selective targeting of the ATF3 leucine zipper dimerization domain using intracellular peptide library screening; made in house; host or cells: chemical solid-phase peptide synthesis (no expression host)
T1 sequence (P18847 110-143): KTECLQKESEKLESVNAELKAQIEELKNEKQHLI
In words: CD thermal denaturation of peptide mixed 1:1 with ATF3. The following applies: peptide incubated with ATF3; CD signal at 222 nm, 1 °C increments; 150 μM total peptide; 10 mM potassium phosphate, 100 mM potassium fluoride, pH 7.0; two-state denaturation model. It counts as binding. From the text: Following the observed significant increase in global secondary structure content for the ATF3-ATF3W_aeg complex relative to component peptides (Figure 6), we next analyzed the stability of the complex by undertaking thermal denaturation experiments (Figure 7). […] Moreover, consistent with spectral data, the clear increase from the average profile of the component peptides relative to that of the measured is most pronounced in the combined construct (Figure 7, red hash vs black). This provides robust additional evidence for a preferential interaction between ATF3 and ATF3W_aeg that is improved over either the core a or electrostatic e/g constructs.
Shown are thermal stabilities of peptide pairs measured via temperature dependence of the CD signal at 222 nm. The thermal denaturation profiles for (a) ATF3-ATF3W_a, (b) ATF3-ATF3W_eg, and (c) ATF3-ATF3W_aeg show a substantial increase in the transition midpoint (Tm = 59 °C) relative to component peptides (black vs red hash). Experiments were performed in 10 mM potassium phosphate and 100 mM potassium fluoride (pH 7.0). All spectra were recorded at 1 °C increments at a total peptide concentration of 150 μM and fitted to a two-state denaturation model.
Thermal denaturation experiments were performed at 150 μM total protein concentration in 10 mM potassium phosphate and 100 mM potassium fluoride, pH 7, using an Applied Photophysics Chirascan CD instrument (Leatherhead, UK) as previously described.[23]

In the case of “Ac-ELAALEQKAYALKQENAALEKEVAALEQKIAALK-NH2 (N-terminus and C-terminus assumed) [ATF3W_aeg]”, the “transition midpoint (Tm) of heterodimer with ATF3” value is 60 °C.

The values above are taken from paper PMC10949195, “Exponential Combination of a and e/g Intracellular Peptide Libraries Identifies a Selective ATF3 Inhibitor” (ACS Chemical Biology, 2024).
